Data reported in the NIST ThermoML archive (doi:10.1021/je020131a).

Experiments:
[1] = Liquid; for viscosity: 101.3 kPa, Falling or rolling sphere viscometry; for mass density: 101.33 kPa, Vibrating tube method
[2] = xn = mol fraction of the nth substance listed; conditions: 101.3 kPa, Liquid, Falling or rolling sphere viscometry

C1CCCCC1 [cyclohexane]
[1]
Conditions	mass density [kg/m3]	viscosity [mPa·s]
293.15 K	–	0.976
298.15 K	773.8	0.894
303.15 K	–	0.813
313.15 K	–	0.697

C1CCCCC1 [cyclohexane] + CCOC(=O)OCC
[2], x2 = 0
Conditions	viscosity [mPa·s]
293.15 K	0.976
298.15 K	0.894
303.15 K	0.813
313.15 K	0.697

C1CCCCC1 [cyclohexane] + COC(=O)OC
[2], x2 = 0
Conditions	viscosity [mPa·s]
293.15 K	0.976
298.15 K	0.894
303.15 K	0.813
313.15 K	0.697

CCOC(=O)OCC [diethyl carbonate]
[1]
Conditions	mass density [kg/m3]	viscosity [mPa·s]
293.15 K	–	0.795
298.15 K	969.1	0.749
303.15 K	–	0.699
313.15 K	–	0.623

CCOC(=O)OCC [diethyl carbonate] + C1CCCCC1
[2]
Conditions	viscosity [mPa·s]
293.15 K, x1 = 0.0501	0.906
293.15 K, x1 = 0.0992	0.85
293.15 K, x1 = 0.1969	0.78
293.15 K, x1 = 0.2923	0.741
293.15 K, x1 = 0.4023	0.72
293.15 K, x1 = 0.502	0.712
293.15 K, x1 = 0.5984	0.718
293.15 K, x1 = 0.6977	0.728
293.15 K, x1 = 0.808	0.742
293.15 K, x1 = 0.9037	0.761
293.15 K, x1 = 0.9511	0.776
293.15 K, x1 = 1	0.795
298.15 K, x1 = 0.0531	0.832
298.15 K, x1 = 0.094	0.792
298.15 K, x1 = 0.1931	0.725
298.15 K, x1 = 0.2865	0.691
298.15 K, x1 = 0.3821	0.676
298.15 K, x1 = 0.4802	0.674
298.15 K, x1 = 0.6454	0.685
298.15 K, x1 = 0.6801	0.689
298.15 K, x1 = 0.7828	0.701
298.15 K, x1 = 0.8852	0.719
298.15 K, x1 = 0.9177	0.726
298.15 K, x1 = 1	0.749
303.15 K, x1 = 0.0497	0.76
303.15 K, x1 = 0.1018	0.717
303.15 K, x1 = 0.1958	0.665
303.15 K, x1 = 0.293	0.637
303.15 K, x1 = 0.3922	0.628
303.15 K, x1 = 0.4767	0.626
303.15 K, x1 = 0.5943	0.635
303.15 K, x1 = 0.6778	0.643
303.15 K, x1 = 0.7897	0.657
303.15 K, x1 = 0.8649	0.671
303.15 K, x1 = 0.94	0.684
303.15 K, x1 = 1	0.699
313.15 K, x1 = 0.0511	0.659
313.15 K, x1 = 0.0983	0.632
313.15 K, x1 = 0.2003	0.594
313.15 K, x1 = 0.3002	0.572
313.15 K, x1 = 0.3963	0.56
313.15 K, x1 = 0.4953	0.563
313.15 K, x1 = 0.5914	0.568
313.15 K, x1 = 0.7001	0.576
313.15 K, x1 = 0.8098	0.589
313.15 K, x1 = 0.9014	0.603
313.15 K, x1 = 0.9494	0.613
313.15 K, x1 = 1	0.623

CCOC(=O)OCC [diethyl carbonate] + CCCCCC
[2]
Conditions	viscosity [mPa·s]
293.15 K, x1 = 0.0576	0.318
293.15 K, x1 = 0.1106	0.326
293.15 K, x1 = 0.2219	0.353
293.15 K, x1 = 0.3358	0.388
293.15 K, x1 = 0.4303	0.422
293.15 K, x1 = 0.5384	0.471
293.15 K, x1 = 0.6357	0.524
293.15 K, x1 = 0.7334	0.588
293.15 K, x1 = 0.8246	0.652
293.15 K, x1 = 0.9171	0.721
293.15 K, x1 = 0.9589	0.757
293.15 K, x1 = 1	0.795
298.15 K, x1 = 0.0586	0.318
298.15 K, x1 = 0.1024	0.323
298.15 K, x1 = 0.2106	0.347
298.15 K, x1 = 0.305	0.37
298.15 K, x1 = 0.3592	0.389
298.15 K, x1 = 0.4259	0.412
298.15 K, x1 = 0.5719	0.475
298.15 K, x1 = 0.7051	0.546
298.15 K, x1 = 0.7965	0.605
298.15 K, x1 = 0.8894	0.67
298.15 K, x1 = 0.9095	0.688
298.15 K, x1 = 0.9794	0.737
298.15 K, x1 = 1	0.749
303.15 K, x1 = 0.0583	0.292
303.15 K, x1 = 0.0941	0.299
303.15 K, x1 = 0.1925	0.324
303.15 K, x1 = 0.2897	0.347
303.15 K, x1 = 0.3927	0.378
303.15 K, x1 = 0.5087	0.42
303.15 K, x1 = 0.6072	0.463
303.15 K, x1 = 0.7059	0.512
303.15 K, x1 = 0.8002	0.568
303.15 K, x1 = 0.8947	0.628
303.15 K, x1 = 0.9532	0.672
303.15 K, x1 = 1	0.699
313.15 K, x1 = 0.0502	0.264
313.15 K, x1 = 0.1001	0.278
313.15 K, x1 = 0.2001	0.295
313.15 K, x1 = 0.3008	0.318
313.15 K, x1 = 0.4021	0.344
313.15 K, x1 = 0.4972	0.371
313.15 K, x1 = 0.5992	0.41
313.15 K, x1 = 0.7005	0.454
313.15 K, x1 = 0.8096	0.509
313.15 K, x1 = 0.898	0.558
313.15 K, x1 = 0.9671	0.599
313.15 K, x1 = 1	0.623

CCOC(=O)OCC [diethyl carbonate] + CCCCCCC
[2]
Conditions	viscosity [mPa·s]
293.15 K, x1 = 0.049	0.41
293.15 K, x1 = 0.0983	0.413
293.15 K, x1 = 0.1973	0.427
293.15 K, x1 = 0.297	0.449
293.15 K, x1 = 0.3989	0.477
293.15 K, x1 = 0.4952	0.508
293.15 K, x1 = 0.601	0.549
293.15 K, x1 = 0.7014	0.594
293.15 K, x1 = 0.8012	0.647
293.15 K, x1 = 0.8985	0.707
293.15 K, x1 = 0.9482	0.744
293.15 K, x1 = 1	0.795
298.15 K, x1 = 0.0509	0.39
298.15 K, x1 = 0.0977	0.394
298.15 K, x1 = 0.1973	0.41
298.15 K, x1 = 0.3052	0.43
298.15 K, x1 = 0.3949	0.453
298.15 K, x1 = 0.5028	0.486
298.15 K, x1 = 0.5924	0.516
298.15 K, x1 = 0.7096	0.565
298.15 K, x1 = 0.8054	0.612
298.15 K, x1 = 0.9028	0.673
298.15 K, x1 = 0.9495	0.709
298.15 K, x1 = 1	0.749
303.15 K, x1 = 0.0506	0.386
303.15 K, x1 = 0.1001	0.389
303.15 K, x1 = 0.1991	0.399
303.15 K, x1 = 0.301	0.416
303.15 K, x1 = 0.4058	0.438
303.15 K, x1 = 0.5006	0.464
303.15 K, x1 = 0.6133	0.501
303.15 K, x1 = 0.7037	0.539
303.15 K, x1 = 0.8029	0.584
303.15 K, x1 = 0.8988	0.637
303.15 K, x1 = 0.946	0.667
303.15 K, x1 = 1	0.699
313.15 K, x1 = 0.0493	0.337
313.15 K, x1 = 0.0986	0.344
313.15 K, x1 = 0.1975	0.362
313.15 K, x1 = 0.2962	0.381
313.15 K, x1 = 0.3992	0.403
313.15 K, x1 = 0.4943	0.426
313.15 K, x1 = 0.5992	0.456
313.15 K, x1 = 0.699	0.49
313.15 K, x1 = 0.8009	0.528
313.15 K, x1 = 0.8984	0.573
313.15 K, x1 = 0.9508	0.599
313.15 K, x1 = 1	0.623

CCOC(=O)OCC [diethyl carbonate] + CCCCCCCC
[2]
Conditions	viscosity [mPa·s]
293.15 K, x1 = 0.0504	0.535
293.15 K, x1 = 0.099	0.528
293.15 K, x1 = 0.1947	0.529
293.15 K, x1 = 0.2939	0.535
293.15 K, x1 = 0.3911	0.55
293.15 K, x1 = 0.4965	0.574
293.15 K, x1 = 0.6012	0.604
293.15 K, x1 = 0.6971	0.641
293.15 K, x1 = 0.7996	0.684
293.15 K, x1 = 0.8871	0.727
293.15 K, x1 = 0.9502	0.763
293.15 K, x1 = 1	0.795
298.15 K, x1 = 0.0568	0.514
298.15 K, x1 = 0.1069	0.51
298.15 K, x1 = 0.1985	0.511
298.15 K, x1 = 0.2979	0.515
298.15 K, x1 = 0.3968	0.528
298.15 K, x1 = 0.5035	0.551
298.15 K, x1 = 0.605	0.578
298.15 K, x1 = 0.7054	0.614
298.15 K, x1 = 0.8042	0.653
298.15 K, x1 = 0.9035	0.698
298.15 K, x1 = 0.9549	0.728
298.15 K, x1 = 1	0.749
303.15 K, x1 = 0.0504	0.485
303.15 K, x1 = 0.1002	0.485
303.15 K, x1 = 0.2035	0.486
303.15 K, x1 = 0.2953	0.494
303.15 K, x1 = 0.3942	0.507
303.15 K, x1 = 0.5035	0.525
303.15 K, x1 = 0.6019	0.55
303.15 K, x1 = 0.7055	0.58
303.15 K, x1 = 0.8011	0.613
303.15 K, x1 = 0.8999	0.654
303.15 K, x1 = 0.9498	0.677
303.15 K, x1 = 1	0.699
313.15 K, x1 = 0.0495	0.436
313.15 K, x1 = 0.0984	0.44
313.15 K, x1 = 0.1957	0.448
313.15 K, x1 = 0.2957	0.459
313.15 K, x1 = 0.3958	0.472
313.15 K, x1 = 0.4982	0.488
313.15 K, x1 = 0.6036	0.508
313.15 K, x1 = 0.6992	0.529
313.15 K, x1 = 0.7994	0.554
313.15 K, x1 = 0.8992	0.586
313.15 K, x1 = 0.9502	0.608
313.15 K, x1 = 1	0.623

COC(=O)OC [dimethyl carbonate]
[1]
Conditions	mass density [kg/m3]	viscosity [mPa·s]
293.15 K	–	0.626
298.15 K	1063.5	0.585
303.15 K	–	0.536
313.15 K	–	0.494
